Laboratory results: ChEMBL document CHEMBL4196200 (J Med Chem, 2018)
pEC50, pIC50, pKi: −log10 of the molar value.

Key:
[1] = biological target: T1, Vasopressin V1b receptor (Rattus norvegicus, UniProt P48974); assay: Displacement of [3H]AVP from V1B receptor in Wistar rat pituitary membranes incubated for 60 mins by microplate scintillation counting method; type: cell membranes
T1 sequence (P48974 whole entry): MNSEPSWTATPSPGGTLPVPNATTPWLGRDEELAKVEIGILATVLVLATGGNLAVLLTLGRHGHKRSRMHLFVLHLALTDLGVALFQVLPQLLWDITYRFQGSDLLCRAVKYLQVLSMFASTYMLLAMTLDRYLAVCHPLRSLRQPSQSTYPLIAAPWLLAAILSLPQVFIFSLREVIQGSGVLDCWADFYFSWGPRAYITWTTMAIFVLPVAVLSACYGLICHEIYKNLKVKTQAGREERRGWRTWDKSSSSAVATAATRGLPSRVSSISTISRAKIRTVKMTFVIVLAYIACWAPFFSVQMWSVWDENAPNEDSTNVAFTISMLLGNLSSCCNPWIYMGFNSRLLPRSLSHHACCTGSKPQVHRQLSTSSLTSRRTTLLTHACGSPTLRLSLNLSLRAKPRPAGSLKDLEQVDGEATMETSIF

[2] = organism: Homo sapiens; assay: Selectivity for human OTR receptor over human V2 receptor
[3] = biological target: T2, Vasopressin V1a receptor (Homo sapiens, UniProt P37288); assay: Agonist activity at human V1A receptor expressed in CHO cells assessed as increase in myo-inositol 1-phosphate accumulation at 1 uM by IP-One assay relative to AVP; type: functional, cell-based
Target sequence in this assay (P37288 whole entry, looked up): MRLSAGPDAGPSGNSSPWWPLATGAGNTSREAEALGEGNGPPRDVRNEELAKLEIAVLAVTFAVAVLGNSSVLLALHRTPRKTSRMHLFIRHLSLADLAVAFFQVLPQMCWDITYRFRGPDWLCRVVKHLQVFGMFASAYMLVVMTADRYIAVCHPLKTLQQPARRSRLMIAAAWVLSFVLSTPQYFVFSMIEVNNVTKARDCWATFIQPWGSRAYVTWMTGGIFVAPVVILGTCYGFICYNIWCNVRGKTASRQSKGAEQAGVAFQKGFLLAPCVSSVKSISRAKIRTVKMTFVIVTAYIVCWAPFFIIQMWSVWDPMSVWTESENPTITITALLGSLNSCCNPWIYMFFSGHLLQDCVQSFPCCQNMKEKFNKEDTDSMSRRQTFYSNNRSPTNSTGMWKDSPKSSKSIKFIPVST

[4] = biological target: T3, Vasopressin V2 receptor (Homo sapiens, UniProt P30518); assay: Agonist activity at V2 receptor (unknown origin) by cAMP accumulation assay; type: functional
[5] = biological target: T4, Oxytocin receptor (Rattus norvegicus, UniProt P70536); assay: Antagonist activity at OXR receptor in rat uterus; type: functional
T4 sequence (P70536 whole entry): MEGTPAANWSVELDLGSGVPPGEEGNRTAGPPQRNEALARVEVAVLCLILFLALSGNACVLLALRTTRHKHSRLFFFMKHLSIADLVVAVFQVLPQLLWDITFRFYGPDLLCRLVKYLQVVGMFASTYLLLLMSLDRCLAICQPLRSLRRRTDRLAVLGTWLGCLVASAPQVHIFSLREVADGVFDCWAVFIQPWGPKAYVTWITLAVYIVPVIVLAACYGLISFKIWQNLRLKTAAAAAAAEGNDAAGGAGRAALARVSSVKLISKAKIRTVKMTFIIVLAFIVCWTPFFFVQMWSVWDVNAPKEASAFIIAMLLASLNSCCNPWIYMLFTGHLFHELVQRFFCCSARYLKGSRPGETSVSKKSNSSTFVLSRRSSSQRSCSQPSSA

[6] = biological target: T2, Vasopressin V1a receptor; assay: Antagonist activity at human V1A receptor expressed in CHO cells assessed as inhibition of AVP-induced myo-inositol 1-phosphate accumulation at 1 uM by IP-One assay relative to AVP; type: functional, cell-based
Target sequence in this assay (P37288 whole entry, looked up): as the sequence (P37288 whole entry, looked up) above

[7] = biological target: T2, Vasopressin V1a receptor; assay: Binding affinity to V1A receptor (unknown origin)
Target sequence in this assay (P37288 whole entry): as the sequence (P37288 whole entry, looked up) above

[8] = biological target: T3, Vasopressin V2 receptor; assay: Binding affinity to V2 receptor (unknown origin)
[9] = biological target: T5, Vasopressin V1b receptor (Homo sapiens, UniProt P47901); assay: Binding affinity to V1B receptor (unknown origin)
T5 sequence (P47901 whole entry): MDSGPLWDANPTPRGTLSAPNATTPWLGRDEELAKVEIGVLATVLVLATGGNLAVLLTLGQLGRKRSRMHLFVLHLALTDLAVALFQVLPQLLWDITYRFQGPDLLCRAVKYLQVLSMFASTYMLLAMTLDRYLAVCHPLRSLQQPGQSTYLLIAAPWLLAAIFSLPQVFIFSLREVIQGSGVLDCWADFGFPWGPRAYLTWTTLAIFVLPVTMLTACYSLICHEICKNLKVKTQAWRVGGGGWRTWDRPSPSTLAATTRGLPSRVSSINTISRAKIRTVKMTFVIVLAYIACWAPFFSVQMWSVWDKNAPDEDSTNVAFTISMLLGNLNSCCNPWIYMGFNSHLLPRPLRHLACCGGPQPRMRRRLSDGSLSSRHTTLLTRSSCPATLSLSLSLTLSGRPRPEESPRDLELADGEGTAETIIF

[10] = organism: Homo sapiens; assay: Selectivity for human V1a receptor over human V2 receptor
[11] = biological target: T2, Vasopressin V1a receptor; assay: Antagonist activity at V1A receptor (unknown origin) by cAMP accumulation assay; type: functional
Target sequence in this assay (P37288 whole entry): as the sequence (P37288 whole entry, looked up) above

[12] = biological target: T6, Oxytocin receptor (Homo sapiens, UniProt P30559); assay: Binding affinity to OTR receptor (unknown origin)
T6 sequence (P30559 whole entry): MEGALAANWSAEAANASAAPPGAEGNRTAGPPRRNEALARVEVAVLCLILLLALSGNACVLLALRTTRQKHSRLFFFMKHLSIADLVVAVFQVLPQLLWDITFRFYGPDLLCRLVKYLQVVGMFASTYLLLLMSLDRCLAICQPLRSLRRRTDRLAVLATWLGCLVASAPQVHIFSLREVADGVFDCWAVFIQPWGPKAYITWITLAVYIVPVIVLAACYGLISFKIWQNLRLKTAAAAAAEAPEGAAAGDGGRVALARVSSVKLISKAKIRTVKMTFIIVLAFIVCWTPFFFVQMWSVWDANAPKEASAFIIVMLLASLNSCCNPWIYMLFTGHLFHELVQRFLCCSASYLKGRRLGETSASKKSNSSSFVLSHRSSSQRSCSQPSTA

[13] = biological target: T6, Oxytocin receptor; assay: Antagonist activity at human OTR receptor expressed in HEK293FT cells assessed as inhibition of LIT-001-induced response incubated for 30 mins by beta-arrestin recruitment assay; type: functional, cell-based
[14] = biological target: T6, Oxytocin receptor; assay: Antagonist activity at human OTR receptor expressed in HEK293FT cells assessed as inhibition of LIT-001-induced calcium release by Aequorin based assay; type: functional, cell-based
[15] = biological target: T3, Vasopressin V2 receptor; assay: Antagonist activity at human V2 receptor expressed in HEK293FT cells assessed as inhibition of […] response incubated for 30 mins by beta-arrestin recruitment assay; type: functional, cell-based
[16] = biological target: T3, Vasopressin V2 receptor; assay: Antagonist activity at human V2 receptor expressed in HEK293FT cells assessed as inhibition of AVP-induced calcium release by Aequorin based assay; type: functional, cell-based

T3 sequence (P30518 whole entry): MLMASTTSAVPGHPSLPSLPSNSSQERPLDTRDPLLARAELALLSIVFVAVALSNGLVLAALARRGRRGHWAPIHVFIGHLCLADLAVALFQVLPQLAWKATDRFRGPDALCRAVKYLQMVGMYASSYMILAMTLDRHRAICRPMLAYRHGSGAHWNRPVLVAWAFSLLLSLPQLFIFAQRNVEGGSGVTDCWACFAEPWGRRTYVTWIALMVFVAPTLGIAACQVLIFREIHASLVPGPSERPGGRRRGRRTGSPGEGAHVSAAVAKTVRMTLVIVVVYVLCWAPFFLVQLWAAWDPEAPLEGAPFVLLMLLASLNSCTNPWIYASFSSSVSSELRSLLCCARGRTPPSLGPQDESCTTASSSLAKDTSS

`Cc1nc2c([nH]1)-c1ccccc1N(C(=O)c1ccc(NC(=O)c3ccccc3-c3ccccc3)cc1)CC2` [CONIVAPTAN] gave a pKi [1] of under 5.00.

`Cc1ccn(-c2ccc(C(=O)N3Cc4cccn4Cc4ccccc43)c(Cl)c2)n1` showed a Selectivity ratio [2] of 4, an Emax [3] of under 10% and a pEC50 [4] of 9.15. The pIC50 [5] was 7.26, the inhibition [6] was 33% and the pKi [7] was 6.33. For the same molecule, the pKi [8] was 7.40, the pKi [9] was under 6.00 and the Selectivity ratio [10] was 6.9. The pIC50 [11] was 5.78 and the pKi [12] was 6.90.

For `COCc1nnc(N2CC(Oc3ccc(F)cc3Cl)C2)n1-c1ccc(OC)nc1`, the pIC50 [13] was 7.20, the pIC50 [14] was 6.22 and the pIC50 [15] was 5.58. The pIC50 [16] was 5.82.
